Assay results taken from patent US20170283440A1, “CARM1 INHIBITORS AND USES THEREOF” (Epizyme, Inc., priority 2014, published 2017).

Assays:
Human CARM1 (PRMT4) = molecular target: T1, Human CARM1 (PRMT4) (Homo sapiens, UniProt Q86X55); experiment: CARM1 enzyme assay on peptide substrate (3H-SAM Flashplate); format: biochemical; conditions: CARM1 0.25 nM, 3H-SAM 30 nM, peptide 250 nM; read-out: Biochem IC50
T1 construct: Flag-CARM1-His was eluted with 200 ug/ml FLAG peptide in buffer A; made in house; host or cells: HEK 293F cells infected with recombinant baculovirus (pFastBacMam)
T1 sequence (Q86X55 other isoform, or with tags, fused parts or gaps): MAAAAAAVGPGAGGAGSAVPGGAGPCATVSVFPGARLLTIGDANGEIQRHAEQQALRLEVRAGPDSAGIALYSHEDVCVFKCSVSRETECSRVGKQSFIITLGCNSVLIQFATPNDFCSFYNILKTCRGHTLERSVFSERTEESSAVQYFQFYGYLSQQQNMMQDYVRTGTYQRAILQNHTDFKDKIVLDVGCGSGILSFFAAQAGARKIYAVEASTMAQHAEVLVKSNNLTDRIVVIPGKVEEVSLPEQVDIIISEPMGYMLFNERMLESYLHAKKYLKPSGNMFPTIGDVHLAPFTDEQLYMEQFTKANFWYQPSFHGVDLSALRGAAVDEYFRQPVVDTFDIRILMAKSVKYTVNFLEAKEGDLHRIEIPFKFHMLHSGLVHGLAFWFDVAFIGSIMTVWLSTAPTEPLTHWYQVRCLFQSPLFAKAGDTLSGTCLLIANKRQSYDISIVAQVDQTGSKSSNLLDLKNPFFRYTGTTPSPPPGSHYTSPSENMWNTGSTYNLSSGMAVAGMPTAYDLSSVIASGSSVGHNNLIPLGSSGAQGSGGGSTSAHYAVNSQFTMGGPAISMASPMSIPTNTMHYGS
Text: S-adenosylmethionine (SAM), S-adenosylhomocysteine (SAH), bicine, Tween20, dimethylsulfoxide (DMSO), bovine skin gelatin (BSG), sodium butyrate and Tris(2-carboxyethyl)phosphine hydrochloride solution (TCEP) were purchased from Sigma-Aldrich at the highest level of purity possible. ^3H-SAM was purchase from American Radiolabeled Chemicals with a specific activity of 80 Ci/mmol. 384-well streptavidin Flashplates were purchased from PerkinElmer.
Peptide representative of human histone H3 residues 16-30 was synthesized with an N-terminal linker-affinity tag motif and a C-terminal amide cap by 21st Century Biochemicals. The peptide was purified by high-performance liquid chromatography (HPLC) to greater than 95% purity and confirmed by liquid chromatography mass spectrometry (LC-MS). The sequence was Biot-Ahx-[…]-amide and contained a monomethylated arginine at position 26 (SEQ ID NO.:1).
Human CARM1 (PRMT4) (NM_199141.1) transcript clone was amplified from an HEK 293 cDNA library, incorporating a flanking 5′ sequence encoding a FLAG tag ([…]) (SEQ ID NO.:2) fused directly to Ala 2 of CARM1 and 3′ sequence encoding a hexa His sequence ([…]) (SEQ ID NO.:3) fused directly to Ser 608. The gene sequence encoding isoform1 containing a deletion of amino acids 539-561 was amplified subsequently and subcloned into pFastBacMam (Viva Biotech).
Recombinant baculovirus were generated according to Bac-to-Bac kit instructions (Life Technologies). Protein over-expression was accomplished by infecting exponentially growing HEK 293F cell culture at 1.3×10^6 cell/ml with virus (MOI=10) in the presence of 8 mM sodium butyrate. Infections were carried out at 37° C. for 48 hours, harvested by centrifugation, and stored at −80° C. for purification.
Column was washed with 500 mM NaCl in buffer A and Flag-CARM1-His was eluted with 200 ug/ml FLAG peptide in buffer A. Pooled fractions were dialyzed in 20 mM Tris, 150 mM NaCl, 5% glycerol and 1 mM DTT, pH 7.8. The purity of recovered protein was 94.
The assays were all performed in a buffer consisting of 20 mM Bicine (pH=7.6), 1 mM TCEP, 0.005% BSG, and 0.002% Tween 20, prepared on the day of use. Compounds in 100% DMSO (1 ul) were spotted into a polypropylene 384-well V-bottom plates (Greiner) using a Platemate Plus outfitted with a 384-channel head (Thermo Scientific). DMSO (1 ul) was added to Columns 11, 12, 23, 24, rows A-H for the maximum signal control and 1 ul of SAH, a known product and inhibitor of CARM1, was added to columns 11, 12, 23, 24, rows I—P for the minimum signal control. A cocktail (40 ul) containing the CARM1 enzyme was added by Multidrop Combi (Thermo-Fisher). The compounds were allowed to incubate with CARM1 for 30 min at room temperature, then a cocktail (10 ul) containing ^3H-SAM and peptide was added to initiate the reaction (final volume=51 ul). The final concentrations of the components were as follows: CARM1 was 0.25 nM, ^3H-SAM was 30 nM, peptide was 250 nM, SAH in the minimum signal control wells was 1 mM, and the DMSO concentration was 2%. The assays were stopped by the addition of non-radiolabeled SAM (10 ul) to a final concentration of 300 uM, which dilutes the ^3H-SAM to a level where its incorporation into the peptide substrate is no longer detectable. 50 ul of the reaction in the 384-well polypropylene plate was then transferred to a 384-well Flashplate and the biotinylated peptides were allowed to bind to the streptavidin surface for at least 1 hour before being washed once with 0.1% Tween20 in a Biotek ELx405 plate washer. The plates were then read in a PerkinElmer TopCount plate reader to measure the quantity of ^3H-labeled peptide bound to the Flashplate surface, measured as disintegrations per minute (dpm) or alternatively, referred to as counts per minute (cpm).
where dpm=disintegrations per minute, cmpd=signal in assay well, and min and max are the respective minimum and maximum signal controls. […]

[1] = system: asymmetric di-methyl PABP1 in RKO cells; experiment: RKO methylation assay (In Cell Western for asymmetric di-methyl PABP1); format: cell-based; conditions: Homo sapiens, 48 hours incubation, read-out: Cellular IC50
Outline: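 RKO cells treated 48 h at 37 °C, then fixed, methanol-permeabilized and probed for asymmetric di-methyl PABP1 (16 h, 4 °C) with DRAQ5 counterstain; 800/700 nm intensity ratio read.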

SMILES	IC50 (Human CARM1 (PRMT4)) [nM]	IC50 [1] [µM]
NCC(O)COc1cccc(-c2nc(NCc3ccncc3)c3cnn(C4CC4)c3n2)c1 (stereo not drawn) [Example 12-5]	100 to 1000	> 20
CNCC(O)COc1cccc(-c2cc(N(C)CCOC)n3ncc(C(C)C)c3n2)c1 (stereo not drawn) [Example 12-6]	< 100	> 20
CC(C)(C)c1cnn2c(NC3CCOCC3)cc(-c3cccc(OCC(O)CN)c3)nc12 (stereo not drawn) [Example 12-8]	< 100	> 20
CNCC(O)COc1cc(Cl)cc(-c2cc(N3C[C@H]4CC[C@@H](C3)O4)n3ncc(C(C)C)c3n2)c1 (stereo partly drawn) [Example 12-9]	100 to 1000	> 20
CNCC(O)COc1cc(NC)cc(-c2cc(NC3CCOCC3)c3cnn(C(C)C)c3n2)c1 (stereo not drawn) [Example 13-4]	< 100	10 to 20
NCC(O)COc1cccc(-c2nc(NCc3ccccn3)c3cnn(C4CC4)c3n2)c1 (stereo not drawn) [Example 13-5]	100 to 1000	> 20
CNCC(O)COc1cccc(-c2cc(N(C)[C@@H]3CCOC3)n3ncc(C(C)C)c3n2)c1 (stereo partly drawn) [Example 13-6]	< 100	> 20
COc1cc(OCC(O)CN)cc(-c2cc(N(C3CCOCC3)C3CC3)n3ncc(C(C)C)c3n2)c1 (stereo not drawn) [Example 13-8]	100 to 1000	> 20
CC(C)n1ncc2c(N3CCOCC3)cc(-c3cccc(CCC(O)CN)c3)nc21 (stereo not drawn) [Example 13-9]	100 to 1000	> 20
CNCC(O)COc1cc(OC)cc(-c2cc(NC3CCOCC3)c3cnn(C(C)C)c3n2)c1 (stereo not drawn) [Example 14-4]	< 100	> 20
Cn1ccc(CNc2nc(-c3cccc(OCC(O)CN)c3)nc3c2cnn3C2CC2)n1 (stereo not drawn) [Example 14-5]	100 to 1000	> 20
CCN(c1cc(-c2cc(OC)cc(OCC(O)CN)c2)nc2c(C(C)C)cnn12)C1CCOCC1 (stereo not drawn) [Example 14-8]	< 100	> 20
CNCC(O)COc1cccc(-c2nc(NCc3cccc4ccnn34)c3cnn(C4CC4)c3n2)c1 (stereo not drawn) [Example 14-9]	100 to 1000	> 20
Cc1cc(CNc2nc(-c3cccc(OCC(O)CN)c3)nc3c2cnn3C2CC2)no1 (stereo not drawn) [Example 15-5]	100 to 1000	> 20
C#Cc1cc(OCC(O)CNC)cc(-c2cc(N3CCOCC3)n3ncc(C(C)C)c3n2)c1 (stereo not drawn) [Example 15-6]	< 100	> 20
CC(C)(C)c1cnn2c(NC3CCOCC3)cc(-c3cc(Cl)cc(OCC(O)CN)c3)nc12 (stereo not drawn) [Example 15-8]	100 to 1000	> 20
CNCC(O)COc1cc(-c2cc(NC3CCOCC3)c3cnn(C(C)C)c3n2)cc(C2CC2)c1 (stereo not drawn) [Example 16-4]	< 100	> 20
NCC(O)COc1cccc(-c2nc(N3CC4CCC(C3)O4)c3cnn(C4CC4)c3n2)c1 (stereo not drawn) [Example 16-5]	< 100	> 20
CNCC(O)COc1cc(OC)cc(-c2cc(N3[C@@H]4CC[C@@H]3COC4)c3cnn(C(C)C)c3n2)c1 (stereo partly drawn) [Example 17-4]	< 100	10 to 20
NCC(O)COc1cccc(-c2nc(N3C4CCC3COC4)c3cnn(C4CC4)c3n2)c1 (stereo not drawn) [Example 17-5]	< 100	> 20
C=Cc1cc(OCC(O)CNC)cc(-c2cc(N3CCOCC3)n3ncc(C(C)C)c3n2)c1 (stereo not drawn) [Example 17-6]	100 to 1000	> 20
CNCC(O)COc1cc(OC)cc(-c2cc(N3CCOCC3)n3ncc(C(=O)OC)c3n2)c1 (stereo not drawn) [Example 17-8]	< 100	10 to 20
CNCC(O)COc1cccc(-c2nc(NCc3cccnc3)c3cnn(C4CC4)c3n2)c1 (stereo not drawn) [Example 17-9]	100 to 1000	> 20

SMILES	IC50 (Human CARM1 (PRMT4)) [nM]	IC50 [1] [µM]
NCC(O)COc1cccc(-c2nc(NCc3nccs3)c3cnn(C4CC4)c3n2)c1 (stereo not drawn) [Example 18-5]	< 100	> 20
CNCC(O)COc1cc(NC)cc(-c2cc(N(C)C3CCOCC3)c3cnn(C(C)C)c3n2)c1 (stereo not drawn) [Example 19-4]	< 100	5 to 10
CNCC(O)COc1cccc(-c2nc(NC3CCOCC3)c3cnn(C4CC4)c3n2)c1 (stereo not drawn) [Example 19-5]	100 to 1000	> 20
CNCC(O)COc1cccc(-c2cc(NC3CCOCC3)n3ncc(C(C)(C)C)c3n2)c1 (stereo not drawn) [Example 19-6]	< 100	> 20
CNCC(O)COc1cccc(-c2nc(NCc3cc(C)on3)c3cnn(C4CC4)c3n2)c1 (stereo not drawn) [Example 19-9]	100 to 1000	> 20
CNCC(O)COc1cc(OC)cc(-c2cc(NC3CCOCC3)c3c(C)nn(C(C)C)c3n2)c1 (stereo not drawn) [Example 20-4]	< 100	10 to 20
CNCC(O)COc1cccc(-c2nc(N3CCOCC3)c3cnn(C(C)(C)C)c3n2)c1 (stereo not drawn) [Example 20-5]	< 100	> 20
CCc1cc(OCC(O)CNC)cc(-c2cc(N3CCOCC3)n3ncc(C(C)C)c3n2)c1 (stereo not drawn) [Example 20-6]	100 to 1000	> 20
CNCC(O)COc1cccc(-c2cc(N3CCOC3=O)n3ncc(C(C)C)c3n2)c1 (stereo not drawn) [Example 20-9]	100 to 1000	> 20
CNCC(O)COc1cc(OC(C)C)cc(-c2cc(N3CCOCC3)c3cnn(C(C)C)c3n2)c1 (stereo not drawn) [Example 21-4]	< 100	> 20
CNCC(O)COc1cccc(-c2nc(NCc3ccncc3)c3cnn(C4CC4)c3n2)c1 (stereo not drawn) [Example 21-5]	100 to 1000	> 20
CNCC(O)COc1cc(NC)cc(-c2cc(N3CCOCC3)n3ncc(C(C)C)c3n2)c1 (stereo not drawn) [Example 21-6]	< 100	> 20
CC(C)n1ncc2c(N3CCOCC3)cc(-c3cccc(SCC(O)CN)c3)nc21 (stereo not drawn) [Example 21-9]	100 to 1000	> 20
CNCC(O)COc1cc(Cl)cc(-c2cc(NC3CCOCC3)c3c(C)nn(C(C)C)c3n2)c1 (stereo not drawn) [Example 22-4]	< 100	5 to 10
CNCC(O)COc1cccc(-c2nc(NCc3ccccn3)c3cnn(C4CC4)c3n2)c1 (stereo not drawn) [Example 22-5]	100 to 1000	> 20
CNCC(O)COc1cc(OC)cc(-c2cc(N3CCOCC3)n3ncc(C(C)C)c3n2)c1 (stereo not drawn) [Example 22-6]	< 100	> 20
CNCC(O)COc1cc(OC)cc(-c2cc(N[C@H]3CCOC3)n3ncc(C(C)C)c3n2)c1 (stereo partly drawn) [Example 23-6]	< 100	> 20
CNCC(O)COc1cc(CO)cc(-c2cc(NC3CCOCC3)c3cnn(C(C)C)c3n2)c1 (stereo not drawn) [Example 23-9]	100 to 1000	> 20
CC(C)n1ncc2c(N3CCOCC3)cc(-c3cc(OCC(O)CN)cc(OC(F)(F)F)c3)nc21 (stereo not drawn) [Example 24-4]	100 to 1000	> 20
Cc1cc(CNc2nc(-c3cccc(OCC(O)CN)c3)nc3c2cnn3C2CC2)n(C)n1 (stereo not drawn) [Example 24-5]	< 100	> 20
CNCC(O)COc1cc(OC)cc(-c2cc(N[C@@H]3CCOC3)n3ncc(C(C)C)c3n2)c1 (stereo partly drawn) [Example 24-6]	< 100	> 20
CC(C)n1ncc2c(NS(=O)(=O)N(C)C)cc(-c3cccc(OCC(O)CN)c3)nc21 (stereo not drawn) [Example 24-9]	100 to 1000	> 20
